According to PMC2892117 (Bioorganic & medicinal chemistry, 2010):
Structures can show the parent of a compound that is named as a salt.

Columns and labels:
[1] = test system: T. b. r. STIB 900; experiment: STIB900 mouse model for acute African trypanosomiasis; assay type: in vivo; details: for responders at 5 mg/kg / responders at 25 mg/kg: Mus musculus, 1440 h, read-out: Cures; for Survival / Survival (days): average days of mice survival; for Cures: number of mice that survive and are parasite free for 60 days
[2] = test system: Trypanosoma brucei rhodesiense STIB900; experiment: microbe, parasite or virus in culture; details: RHODESIENSE|STIB900, read-out: T. b. r. IC50
[3] = test system: Plasmodium falciparum K1; experiment: In vitro assay with P. f. K1 strain; assay type: cell-based; details: K1, read-out: P. f. IC50

Row | Compound | responders at 5 mg/kg ([1]; ip) [%] | responders at 25 mg/kg ([1]; po) [%] | Survival ([1]; po, 4 × 25 mg/kg) [days] | further results
1 | Cl.Cl.N=C(N)c1ccc(-c2cnc(-c3ccc(C(=N)N)cc3)s2)cc1 [5a, 2,5-Bis(4-amidinophenyl)thiazole dihydrochloride] | 25 |  |  | Survival ([1]; ip, 4 × 5 mg/kg): >44.5 days; Cures ([1]; ip, 4 × 5 mg/kg, 5 mg/kg): 1 of four and one of four
2 | N=C(N)c1ccc(-c2cnc(-c3ccc(C(=N)N)nc3)s2)cc1 [5b, 5-(4-Amidinophenyl)-2-(2-amidinopyridin-5-yl)thiazole dihydrochloride] | 0 |  |  | 
3 | N=C(N)c1ccc(-c2cnc(-c3ccc(C(=N)N)cn3)s2)cc1 [5c, 5-(4-Amidinophenyl)-2-(3-amidinopyridin-6-yl)thiazole dihydrochloride] | 0 |  |  | 
4 | Cl.Cl.N=C(N)c1ccc(-c2ncc(-c3ccc(C(=N)N)nc3)s2)cc1 [5d, 2-(4-Amidinophenyl)-5-(2-amidinopyridin-5-yl)thiazole dihydrochloride] | 0 |  |  | Survival ([1]; ip, 4 × 5 mg/kg): >36 days
5 | Cl.Cl.N=C(N)c1ccc(-c2cnc(-c3ccc(C(=N)N)nc3)s2)cn1 [5e, 2,5-Bis(2-amidinopyridin-5-yl)thiazole dihydrochloride] | 0 |  |  | Survival ([1]; ip, 4 × 5 mg/kg): 50.5 days
6 | N=C(N)c1ccc(-c2ncc(-c3ccc(C(=N)N)nc3)s2)nc1 [5f, 2-(3-Amidinopyridin-6-yl)-5-(2-amidinopyridin-5-yl)thiazole dihydrochloride] | 0 |  |  | 
7 | Cl.Cl.N=C(N)c1ccc(-c2cnc(-c3ccc(C(=N)N)cn3)s2)nc1 [5g, 2,5-Bis-(3-amidinopyridin-6-yl)thiazole dihydrochloride] | 0 |  |  | Survival ([1]; ip, 4 × 5 mg/kg): 21.5 days
8 | N/C(=N/O)c1ccc(-c2cnc(-c3ccc(/C(N)=N\O)cc3)s2)cc1 [6a, 2,5-Bis-(4-N-hydroxyamidinophenyl)thiazole dihydrochloride] |  | 0 |  | 
9 | Cl.Cl.N/C(=N\O)c1ccc(-c2cnc(-c3ccc(/C(N)=N/O)nc3)s2)cc1 [6b, 5-(4-N-hydroxyamidinophenyl)-2(2-N-hydroxyamidinopyridin-5-yl)thiazole dihydrochloride] |  | 0 | 37.5 | 
10 | Cl.Cl.N/C(=N\O)c1ccc(-c2cnc(-c3ccc(/C(N)=N\O)cn3)s2)cc1 [6c, 5-(4-N-hydroxyamidinophenyl)-2-(3-N-hydroxyamidinopyridin-6-yl)thiazole dihydrochloride] |  | 0 | 24 | 
11 | Cl.Cl.N/C(=N\O)c1ccc(-c2ncc(-c3ccc(/C(N)=N\O)nc3)s2)cc1 [6d, 2-(4-N-hydroxyamidinophenyl)-5-(2-N-hydroxyamidinopyridin-5yl)thiazole dihydrochloride] |  | 0 | 36.75 | 
12 | Cl.Cl.N/C(=N\O)c1ccc(-c2cnc(-c3ccc(/C(N)=N\O)nc3)s2)cn1 [6e, 2,5-Bis-(2-N-hydroxyamidinopyridin-5-yl)thiazole dihydrochloride] |  | 25 | >37.5 | 
13 | Cl.Cl.N/C(=N\O)c1ccc(-c2cnc(-c3ccc(/C(N)=N\O)cn3)s2)nc1 [6g, 2,5-Bis(3-N-hydroxyamidinopyridin-6-yl)thiazole dihydrochloride] |  | 0 | 9 | 
14 | CO/N=C(/N)c1ccc(-c2cnc(-c3ccc(/C(N)=N\OC)cc3)s2)cc1.Cl.Cl [7a, 2,5-Bis-(4-N-methoxyamidinophenyl)thiazole dihydrochloride] |  | 0 | 41 | 
15 | CO/N=C(\N)c1ccc(-c2cnc(-c3ccc(/C(N)=N/OC)nc3)s2)cc1.Cl [7b, 5-(4-N-methoxyamidinophenyl)-2-(2-N-methoxyamidinopyridin-5-yl)thiazole dihydrochlodide] |  | 0 | 42.75 | 
16 | CO/N=C(\N)c1ccc(-c2cnc(-c3ccc(/C(N)=N\OC)cn3)s2)cc1.Cl.Cl [7c, 5-(4-N-methoxyamidinophenyl)-2-(3-N-methoxyamidinopyridin-6-yl)thiazole dihydrochloride] |  | 0 | 35 | 
17 | CO/N=C(\N)c1ccc(-c2cnc(-c3ccc(/C(N)=N\OC)nc3)s2)cn1.Cl.Cl [7e, 2,5-Bis(2-N-methoxyamidinopyridin-5-yl)thiazole dihydrochloride] |  | 25 | >47.25 | 
18 | CO/N=C(\N)c1ccc(-c2cnc(-c3ccc(/C(N)=N\OC)cn3)s2)nc1 [7g, 2,5-Bis(3-N-methoxyamidinopyridin-6-yl)thiazole dihydrochloride] |  | 0 |  | 
19 | N=C(N)c1ccc(OCCCCCOc2ccc(C(=N)N)cc2)cc1 [I, pentamidine, reference compound] | 50 |  |  | 
20 | N=C(N)c1ccc(-c2ccc(-c3ccc(C(=N)N)cc3)o2)cc1 [IIa, furamidine] |  |  |  | Survival ([1]; ip, 4 × 5 mg/kg): >46 days; IC50 [2]: 3.2 nM
21 | CONC(=N)c1ccc(-c2ccc(-c3ccc(C(=N)NOC)cc3)o2)cc1 [IIb, Pafuramidine, reference compound] |  |  | > 60 | Cures ([1]; po, 4 × 5 mg/kg): 0/4; Cures ([1]; po, 4 × 25 mg/kg): 4/4
22 | N=C(N)c1ccc(-c2ccc(-c3ccc(C(=N)N)cn3)o2)cc1 [IIc, azafuramidine, reference compound] | 75 |  |  | IC50 [3]: 6.5 nM; Survival ([1]; ip, 4 × 5 mg/kg): >54.5 days; IC50 [2]: 7 nM
23 | CO/N=C(\N)c1ccc(-c2ccc(-c3ccc(/C(N)=N/OC)cn3)o2)cc1 [IId, reference compound] |  |  |  | Survival (days) ([1]; po, 4 × 5 mg/kg): >60 >60 days; Cures ([1]; po, 4 × 5 mg/kg): 4/4 4/4; Survival (days) ([1]; po, 4 × 25 mg/kg): >60 >60 days; Cures ([1]; po, 4 × 25 mg/kg): 4/4 4/4
24 | N=C(N)c1ccc(-c2ccc(-c3ccc(C(=N)N)cc3)s2)cc1 [IIe, reference compound] | 50 |  |  | Survival ([1]; ip, 4 × 5 mg/kg): >48.75 days
